Assay results from PMC11024869, “The activity of antimicrobial peptoids against multidrug-resistant ocular pathogens” (Contact lens & anterior eye : the journal of the British …, 2024).
No end group written: not given here.

Experiments:
Escherichia coli = conditions: cited from earlier work
Protocol: (§1) Peptoids act similarly to AMPs as their cationic regions interact electrostatically with the anionic membranes of bacteria and may also facilitate the targeting of intracellular DNA and ribosomal agglutination. […] For example, peptoids can have minimum inhibitory concentrations as low as 1.8 μg mL^−1 against Bacillus subtilis and 12.4 μg mL^−1 against Escherichia coli, whereas these bacteria had MICs of 4.5 μg mL^−1 and 35.6 μg mL^−1, respectively, with the AMP melittin [31] Di-guanidine peptoids, produced via acid amine-coupling between nap ...

Bacillus subtilis = conditions: cited from earlier work
Protocol: as §1

Proteinase K = Proteinase K (Parengyodontium album, UniProt P06873)
Protocol: (§2) Melimine was used as positive control as it is a cationic antimicrobial peptide that can be hydrolysed by proteases. The Expasy peptide cutter module (https://web.expasy.org/peptide_cutter/) was accessed to predict which proteases might digest melimine. The susceptibility of the antimicrobial compounds to digestion by two proteases expected to digest melimine, Proteinase K (120 unit mL^−1 in 20 mM Tris HCl, pH 7.4; New England Bio Labs, Australia) and Trypsin (10,350 BAFE units/mg in 50 mM borate buffer, pH 8.5; Thermo Scientific products, Australia), was tested. The peptoids and melimine were incubated with each protease at the ratio (w/w) of 1:100 in PBS (pH 7.4) for 24 h at 37 °C. After incubation, the peptoid/melimine + protease solutions were tested for their activity against P. aeruginosa 216 which was grown overnight in TSB at 37 °C. Bacterial cells were washed three times in PBS and then resuspended in MHB OD660nm of 0.1 (equal to 1x10^8 CFU mL^−1. The bacterial suspension was then diluted in MHB to a final working concentration of 5x10^6 cells mL^−1. The diluted bacterial suspension was subsequently added to the wells containing the peptoids/melimine + protease solution and incubated for 24 h at 37 °C. Peptoids/melimine solutions alone (no proteases) were used as a positive control, while protease solutions without the peptoids/melimine were used as a negative control. Post incubation, to inhibit the activity of the proteases, the bacterial suspensions were heated at 55 °C for 10 min in a water bath. After the heating step, the absorbance of the suspensions was measured at OD660nm.

Trypsin = target: T1, Trypsin (Bos taurus, UniProt P00760)
T1 sequence (P00760 24-246): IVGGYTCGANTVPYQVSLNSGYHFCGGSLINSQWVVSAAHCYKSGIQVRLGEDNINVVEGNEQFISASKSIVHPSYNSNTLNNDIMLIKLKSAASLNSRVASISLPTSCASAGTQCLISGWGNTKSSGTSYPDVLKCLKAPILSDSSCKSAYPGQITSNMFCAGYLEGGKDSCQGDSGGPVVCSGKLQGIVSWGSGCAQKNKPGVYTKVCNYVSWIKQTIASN
Protocol: as §2

[1] = incubated with protease at ratio (w/w) 1:100 in PBS pH 7.4, 24 h 37 °C, then P aeruginosa 216 in MHB 24 h 37 °C, OD660nm
[2] = result in words, 24 h 37 °C, P. aeruginosa 216

Proteinase K, sequence (P06873 106-384): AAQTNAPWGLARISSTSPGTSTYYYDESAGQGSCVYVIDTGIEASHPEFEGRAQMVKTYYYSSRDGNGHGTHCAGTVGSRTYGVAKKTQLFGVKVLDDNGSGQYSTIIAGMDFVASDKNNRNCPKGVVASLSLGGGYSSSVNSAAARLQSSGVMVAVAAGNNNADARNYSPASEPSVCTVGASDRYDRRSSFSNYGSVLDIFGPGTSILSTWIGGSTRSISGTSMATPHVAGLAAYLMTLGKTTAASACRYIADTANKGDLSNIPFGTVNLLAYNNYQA

Substance	MIC (Escherichia coli) [µg/mL]	MIC (Bacillus subtilis) [µg/mL]	MIC after Proteinase K (Proteinase K; [1])	antimicrobial activity after digestion with proteinase K (Proteinase K; [2])	MIC after Trypsin (Trypsin; [1])	antimicrobial activity after digestion with trypsin (Trypsin; [2])
melittin: the AMP melittin	35.6	4.5	–	–	–	–
TLISWIKNKRKQRPRVSRRRRRRGGRRRR [Melimine, reference compound]	–	–	>250 (66) μg mL^−1	lost all of its antimicrobial activity	>250 (66) μg mL^−1	lost all of its antimicrobial activity
